Legend:
[1] = system: retinal function; experiment: Scotopic ERG in rd10 mouse model of retinal neuronal degeneration; type: in vivo; details: rd10 mice; 60 mg/kg twice daily IP, P15 until P28; vs vehicle (PBS)
Experimental: (§1) FIG. 8. K-9 protects retinal function. Starting at postnatal day 15 (P15) until P28, rd10 mice were treated with K-9 at 60 mg/kg twice daily via intraperitoneal injection or with an equal volume of vehicle (PBS). Retinal function was monitored with scotopic electroretinography (ERG).
as §1, with “K-9” for “FIG. 8. K-9”, “function in the rd10 mouse model of retinal neuronal degeneration. rd10 is an autosomal missense R560C mutation in the Pde6b gene, which results in a recessively inherited retinal neuronal degeneration (FIG. 8).” for “function.”

[2] = system: caspase-1; experiment: Retinal cleaved caspase-1 immunoblot in mouse RRD model (inflammasome activation); type: in vivo, mice
Experimental: (§2) RRD was induced in mice via subretinal injection (SRI) of 1% carboxymethylcellulose (CMC). To simulate outcomes following the clinical management of RRD, optimal conditions were determined in which SRI of CMC induced spontaneous retinal reattachment (SRR) over 10 days (RRD/SRR). K-9, 3TC, or AZT was administered via intraperitoneal (IP) injection. Inflammasome activation was monitored by cleaved caspase-1 abundance, and photoreceptor death was assessed by TUNEL staining. Retinal function was assessed by full-field scotopic electroretinography (ERG).
(§3) A persistent RRD model was established by subretinal injection (SRI) of 3 μl 1% carboxymethyl cellulose (CMC; Refresh Liquigel, Allergan, Irvine, CA, USA). The model of RRD/SRR was achieved by SRI of 3 μl 0.03% CMC. SRIs were performed as previously described (23) using a 35-gauge needle (Ito Co., Fuji, Japan).
(§4) NRTIs and K-9 were delivered via intraperitoneal (IP) injection in equimolar amounts. Lamivudine (3TC, 50 mg/kg) or azidothymidine (AZT, 60 mg/kg) was injected twice daily (SelleckChem, Houston, TX, USA). Kamuvudine K-9 (3-methyl-3TC) was synthesized as previously described (21) and administered either at a low dose (K-9L; 90 mg/kg daily) or a high dose (K-9H; 60 mg/kg twice daily, equimolar to NRTI doses). IP injection of phosphate buffered saline (PBS) was used as control. […]

[3] = system: retinal electrical function; experiment: Full-field scotopic ERG in RRD/SRR mouse model; type: in vivo, mice
Experimental: FIGS. 7A-7D. K-9 improves ERG functional outcomes in RRD/SRR model (A) Experiment overview: the RRD/SRR model was established day 0 (SRI of 3 μl 0.03% CMC). K-9 (60 mg/kg) or PBS was administered days 0-10 twice daily IP. Scotopic ERG was measured at baseline, as well as days 7, 11, and 14. In 7A-D, n=10-12 per group. (B) ERG waveforms representative of the K-9 and PBS groups, at baseline and day 14. (C) Amplitudes of a- and b-waves over time in the K-9 (red) and PBS (blue) groups at the stimulation intensity of 1.0 log cd sec/m2. […] Data (7C-D) is represented as mean±SEM. (D) AA from baseline for PBS (blue) and K-9 (red) groups.
as §2, with “K-9, 3TC, or AZT was administered via intraperitoneal (IP) injection.” left out, “(ERG). […]” for “(ERG).”
ERG was recorded at baseline, as well as days 7, 11, and 14 following SRI of CMC. Mice (n=6) were dark adapted overnight, and then ERG was measured using Ganzfeld ERG (Phoenix Laboratories). […] Responses were recorded to white-flash stimuli ranging from −1.7 to 1.0 log cd s/m2. […]

[4] = system: photoreceptors; experiment: TUNEL staining of retinal outer nuclear layer in mouse RRD model (photoreceptor death); type: in vivo, mice
Experimental: as §2, §3, §4

CCOCC1OC(n2ccc(N(CC)CC)nc2=O)CS1 (stereo not shown) [K-9, 4-(diethylamino)-1-[2-(ethoxymethyl)-1,3-oxathiolan-5-yl]-1,2-dihydropyrimidin-2-one]
ERG a-wave and b-wave [1]: completed protection
degree of suppression of caspase-1 activation ([2]; day 3 RRD model, IP, mean±SEM, K-9 versus NRTIs P<0.05): 84%±1%
retinal cleaved caspase-1 ([2]; three days after inducing RRD (SRI 3 μl 1% CMC), IP treatment, compared with PBS-treated mice): dose-dependent and complete reduction
retinal electrical function (ERG a- and b-wave amplitudes) ([3]; RRD/SRR model (SRI 3 μl 0.03% CMC), K-9 60 mg/kg twice daily IP days 0-10, ERG days 7-14, vs PBS): preserves retinal electrical function
ERG parameters following retinal reattachment ([3]; RRD/SRR model, K-9 administered during the period of retinal detachment): improvement
degree of photoreceptor protection ([4]; day 3 RRD model, TUNEL, IP, mean±SEM, K-9 versus NRTIs P<0.05): 56%±7%
number of TUNEL+ cells in the ONL of the retina ([4]; three days after inducing RRD, IP treatment, compared with PBS-treatment): dose-dependent reduction

From patent US20260083768A1, “INFLAMMASOME INHIBITION FOR NEUROPROTECTION” (University of Virginia Patent Foundation, priority 2022, published 2026)
